Each structure is given as a SMILES string.

T1 sequence (P00533 with tags, fused parts or gaps DEL746-750/T790M limits assumed): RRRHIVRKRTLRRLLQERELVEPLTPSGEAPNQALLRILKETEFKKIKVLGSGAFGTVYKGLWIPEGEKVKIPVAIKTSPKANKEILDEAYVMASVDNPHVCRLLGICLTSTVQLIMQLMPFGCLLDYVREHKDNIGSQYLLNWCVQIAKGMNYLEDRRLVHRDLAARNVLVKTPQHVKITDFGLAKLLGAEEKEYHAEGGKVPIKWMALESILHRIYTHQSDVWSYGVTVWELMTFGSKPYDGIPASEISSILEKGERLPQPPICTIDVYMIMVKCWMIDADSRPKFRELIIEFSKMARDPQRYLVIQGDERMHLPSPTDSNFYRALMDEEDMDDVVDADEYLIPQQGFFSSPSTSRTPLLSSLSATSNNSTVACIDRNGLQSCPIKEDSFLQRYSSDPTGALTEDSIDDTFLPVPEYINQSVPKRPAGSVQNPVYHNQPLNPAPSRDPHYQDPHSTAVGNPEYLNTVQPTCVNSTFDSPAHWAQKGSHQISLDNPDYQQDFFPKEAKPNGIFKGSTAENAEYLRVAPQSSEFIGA

This test addresses T1, EGFR del746-750 T790M (Homo sapiens, UniProt P00533, DEL746-750/T790M).
T1 construct: purchased Carna Biosciences 08-528
The experiment in a line: EGFR del746-750 T790M biochemical assay (Caliper mobility shift). As to conditions: 5 μM ATP, 30 min, room temperature; apparent Ki (Morrison) converted by Cheng-Prusoff, Km of ATP 2.1 μM; read-out: EGFR(T790M/d746-750) Ki.
`CO[C@H]1CCN(c2nccc(Nc3cc4c(cn3)c(-c3nn(CCO)cc3C)cn4C(C)C)n2)C[C@H]1F` [Example 348, 2-(3-(6-((2-((3R,4S)-3-Fluoro-4-methoxypiperidin-1-yl)pyrimidin-4-yl)amino)-1-isopropyl-1H-pyrrolo[3,2-c]pyridin-3-yl)-4-methyl-1H-pyrazol-1-yl)ethanol]: the Ki worked out at 19.6 nM.

For the molecule `Cc1nc2cnc(Nc3ccnc(-c4cnn(S(=O)(=O)C5CNC5)c4)n3)cc2n1C(C)C` [Example 467, N-(2-(1-(azetidin-3-ylsulfonyl)-1H-pyrazol-4-yl)pyrimidin-4-yl)-1-isopropyl-2-methyl-1H-imidazo[4,5-c]pyridin-6-amine], the Ki is 5.77 nM. With `Cc1cc(-c2cn(C(C)C)c3cc(Nc4ccnc(-c5cnn(S(=O)(=O)C6CC6)c5)n4)ncc23)n(CCO)n1` [Example 436, 2-(5-(6-(2-(1-(cyclopropylsulfonyl)-1H-pyrazol-4-yl)pyrimidin-4-ylamino)-1-isopropyl-1H-pyrrolo[3,2-c]pyridin-3-yl)-3-methyl-1H-pyrazol-1-yl)ethanol], the Ki was found to be 1.18 nM. The value for `CO[C@H]1CCN(c2nccc(Nc3cc4c(cn3)nc([C@@H](C)O)n4[C@@H](C)C(F)(F)F)n2)C[C@H]1F` [Example 288, (R)-1-[6-[2-((3R,4S)-3-Fluoro-4-methoxypiperidin-1-yl)-pyrimidin-4-ylamino]-1-((S)-2,2,2-trifluoro-1-methylethyl)-1H-imidazo[4,5-c]pyridin-2-yl]ethanol] was 4 nM; that for `C[C@H](n1c([C@@H](C)O)nc2cnc(Nc3ccnc(OCC(C)(C)S(C)(=O)=O)n3)cc21)C(F)(F)F` [Example 609, (R)-1-[6-[2-(2-Methanesulfonyl-2-methylpropoxy)pyrimidin-4-ylamino]-1-((S)-2,2,2-trifluoro-1-methylethyl)-1H-imidazo[4,5-c]pyridin-2-yl]ethanol] was 13.1 nM.

Turning to `CCS(=O)(=O)n1cc(-c2nccc(Nc3cc4c(cn3)c(-c3cnn(CCS(C)(=O)=O)c3)cn4C(C)C)n2)cn1` [Example 392, N-(2-(1-(ethylsulfonyl)-1H-pyrazol-4-yl)pyrimidin-4-yl)-1-isopropyl-3-(1-(2-(methylsulfonyl)ethyl)-1H-pyrazol-4-yl)-1H-pyrrolo[3,2-c]pyridin-6-amine], the Ki amounted to 1.41 nM. To `Cc1nc2cnc(Nc3ccnc(N4CCC(S(C)(=O)=O)CC4)n3)cc2n1C(C)C` [Example 545, (1-Isopropyl-2-methyl-1H-imidazo[4,5-c]pyridin-6-yl)-[2-(4-methanesulfonylpiperidin-1-yl)pyrimidin-4-yl]amine] belongs 501 nM; to `CC(C)n1cnc2cnc(Nc3ccnc(-c4cnn(S(=O)(=O)C5CC5)c4)n3)cc21` [Example 97, N-(2-(1-(cyclopropylsulfonyl)-1H-pyrazol-4-yl)pyrimidin-4-yl)-1-isopropyl-1H-imidazo[4,5-c]pyridin-6-amine], 1.9 nM. To `CCC(C)n1cc(N2CCCC2=O)c2cnc(Nc3ccnc(N4CC[C@@H](O)[C@@H](F)C4)n3)cc21` (mixture of isomers) [Example 641, 1-(1-(sec-butyl)-6-((2-((3S,4R)-3-fluoro-4-hydroxypiperidin-1-yl)pyrimidin-4-yl)amino)-1H-pyrrolo[3,2-c]pyridin-3-yl)pyrrolidin-2-one] belongs 4.02 nM; to `CCC(C)n1cc(C(=O)NC2CCN(C3COC3)CC2)c2cnc(Nc3ccnc(-c4cnn(S(=O)(=O)C5CC5)c4)n3)cc21` (racemic) [Example 371, (±)-1-(sec-butyl)-6-((2-(1-(cyclopropylsulfonyl)-1H-pyrazol-4-yl)pyrimidin-4-yl)amino-N-(1-(oxetan-3-yl)piperidin-4-yl)-1H-pyrrolo[3,2-c]pyridine-3-carboxamide], 1.16 nM; to `CC[C@@H](C)n1c([C@@H](C)O)nc2cnc(Nc3ccnc(-c4cnn(S(=O)(=O)CC)c4)n3)cc21` [Example 281, (R)-1-{1-((R)-sec-Butyl)-6-[2-(1-ethanesulfonyl-1H-pyrazol-4-yl)-pyrimidin-4-ylamino]-1H-imidazo[4,5-c]pyridin-2-yl}ethanol], 2.37 nM.
